DBAASP
≈ marks a conversion by molar mass, not a printed value. Where “and” joins values, the source holds several entries; their conditions need not be identical. Equal entries are not always repeated. Each block holds one compound with its values, some of them ahead of it.

Columns and labels:
Assay in all cases: ≥ marks a high value that may be exact or a test limit, other limits are often not marked, values filed in µg/mL are converted to µM
[1] = system: Pseudomonas aeruginosa A092994
[2] = system: Escherichia coli ATCC 25922
[3] = system: Staphylococcus epidermidis P1111
[4] = system: Acinetobacter baumannii ATCC 19606
[5] = system: Staphylococcus aureus AB94004
[6] = system: Staphylococcus aureus NBRC 100910
Pseudomonas aeruginosa = system: Pseudomonas aeruginosa
Klebsiella pneumoniae = system: Klebsiella pneumoniae
[7] = system: Staphylococcus aureus P1374
[8] = system: Escherichia coli ATCC 35218
Staphylococcus aureus = system: Staphylococcus aureus
[9] = system: Staphylococcus aureus P1381
Enterococcus faecalis = system: Enterococcus faecalis
Acinetobacter baumannii = system: Acinetobacter baumannii
[10] = system: Pseudomonas aeruginosa A093052
Enterococcus faecium = system: Enterococcus faecium
[11] = system: Pseudomonas aeruginosa A093056
[12] = system: Staphylococcus aureus P1369
[13] = system: Staphylococcus aureus ATCC 25923
[14] = system: Enterococcus faecalis ATCC 29212
Escherichia coli = system: Escherichia coli
[15] = system: Staphylococcus aureus ATCC 29213
[16] = system: Bacillus thuringiensis AB92037
[17] = system: Pseudomonas aeruginosa A093115
[18] = system: Pseudomonas aeruginosa ATCC 27853
[19] = system: Klebsiella pneumoniae ATCC 700603
[20] = system: Bacillus subtilis AB91021
[21] = system: Staphylococcus epidermidis P1389
Escherichia coli AB94012 = system: Escherichia coli AB94012
[22] = system: Staphylococcus epidermidis
[23] = system: Pseudomonas aeruginosa A093085
[24] = system: Micrococcus luteus AB93113
[25] = system: Staphylococcus aureus P1383
[26] = system: Pseudomonas aeruginosa AB93066
[27] = system: Bacillus megaterium CGMCC 1.0459
[28] = system: Micrococcus luteus CGMCC 1.0290
[29] = system: Yersinia pseudotuberculosis YPIII
[30] = system: Pseudomonas syringae pv. tabaci 1918NCPPB
[31] = system: Staphylococcus aureus Cowan 1
[32] = system: Pseudomonas aeruginosa ATCC 15692
Staphylococcus capitis 1 = system: Staphylococcus capitis 1
Acinetobacter junii RT-4 = system: Acinetobacter junii RT-4
[33] = system: Streptococcus pyogenes ATCC 21547
Escherichia coli D21 = system: Escherichia coli D21
Bacillus megaterium Bm11 = system: Bacillus megaterium Bm11
[34] = system: Staphylococcus epidermidis ATCC 12228
[35] = system: Schizosaccharomyces pombe
Saccharomyces cerevisiae = system: Saccharomyces cerevisiae
[36] = system: Candida albicans ATCC 10231
[37] = system: Staphylococcus aureus ATCC 25929
[38] = system: Staphylococcus aureus USA 300
[39] = system: Staphylococcus epidermidis ATCC 35984

SMILES: CC[C@H](C)[C@H](NC(=O)[C@H](CCCN=C(N)N)NC(=O)[C@H](CCCCN)NC(=O)[C@@H](NC(=O)[C@@H](N)Cc1ccccc1)[C@@H](C)CC)C(=O)N[C@@H](C)C(=O)N[C@@H](CCCN=C(N)N)C(=O)N[C@@H](CC(C)C)C(=O)N[C@@H](CC(C)C)C(=O)N[C@@H](CCCN=C(N)N)C(=O)N[C@@H](CCCCN)C(=O)N[C@H](C(=O)N[C@@H](Cc1ccccc1)C(N)=O)[C@@H](C)CC [FIKRIARLLRKIF]
MIC [1]: 29.9 µM (≈ 50 µg/mL)
MIC [2]: 14.9 µM and 5.97 µM
MIC [3]: 1.87 µM (≈ 3.13 µg/mL)
MIC [4]: 2.99 µM (≈ 5 µg/mL)
MIC [5]: 1.87 µM (≈ 3.13 µg/mL)
MIC [6]: 2.39 µM (≈ 4 µg/mL)
MIC (Pseudomonas aeruginosa): 8.45 µM (≈ 14.1 µg/mL)
MIC (Klebsiella pneumoniae): 5.97 µM (≈ 9.99 µg/mL)
MIC [7]: 1.87 µM (≈ 3.13 µg/mL)
MIC [8]: 5.97 µM (≈ 9.99 µg/mL)
MIC (Staphylococcus aureus): 2.11 µM (≈ 3.53 µg/mL)
MIC [9]: 3.73 µM (≈ 6.25 µg/mL)
MIC (Enterococcus faecalis): 5.97 µM (≈ 9.99 µg/mL)
MIC (Acinetobacter baumannii): 4.22 µM (≈ 7.07 µg/mL)
MIC [10]: ≥ 59.7 µM
MIC (Enterococcus faecium): 2.99 µM (≈ 5 µg/mL)
MIC [11]: 29.9 µM (≈ 50 µg/mL)
MIC [12]: 1.87 µM (≈ 3.13 µg/mL)
MIC [13]: 1.87 µM (≈ 3.13 µg/mL)
MIC [14]: 2.99 µM (≈ 5 µg/mL)
MIC (Escherichia coli): 8.45 µM (≈ 14.1 µg/mL)
MIC [15]: 2.99 µM (≈ 5 µg/mL)
MIC [16]: 3.73 µM (≈ 6.25 µg/mL)
MIC [17]: ≥ 59.7 µM
MIC [18]: 5.97 µM (≈ 9.99 µg/mL)
MIC [19]: 5.97 µM (≈ 9.99 µg/mL)
MIC [20]: 3.73 µM (≈ 6.25 µg/mL)
MIC [21]: 3.73 µM (≈ 6.25 µg/mL)
MIC (Escherichia coli AB94012): 3.73 µM (≈ 6.25 µg/mL)
MIC [22]: 2.11 µM (≈ 3.53 µg/mL)
MIC [23]: 29.9 µM (≈ 50 µg/mL)
MIC [24]: 3.73 µM (≈ 6.25 µg/mL)
MIC [25]: 3.73 µM (≈ 6.25 µg/mL)
MIC [26]: 14.9 µM (≈ 25 µg/mL)

SMILES: CC(C)C[C@@H]1NC(=O)[C@@H]2CSSC[C@@H](C(=O)N[C@@H](CCCN=C(N)N)C(=O)O)NC(=O)[C@H](C(C)C)NC(=O)[C@@H]3CSSC[C@H](NC(=O)[C@H](C)NC(=O)[C@H](CO)NC(=O)[C@H](Cc4cnc[nH]4)NC(=O)[C@H](CC(N)=O)NC(=O)[C@@H]4CCCN4C(=O)[C@H](CO)NC(=O)[C@H](C(C)C)NC(=O)[C@H](Cc4c[nH]c5ccccc45)NC(=O)[C@H](CCCCN)NC(=O)[C@H](CO)NC(=O)[C@H](CCC(N)=O)NC(=O)[C@H](Cc4ccccc4)NC(=O)[C@H](CO)NC(=O)[C@H](CC(C)C)NC(=O)[C@H](C(C)C)NC(=O)[C@H](CC(=O)O)NC(=O)[C@@H](NC(=O)[C@H](CO)NC(=O)[C@@H](N)Cc4ccccc4)CSSC[C@H](NC(=O)[C@H](CCCCN)NC(=O)CNC(=O)CNC(=O)[C@H](CCCCN)NC(=O)[C@H](CCCN=C(N)N)NC(=O)[C@H](CCCN=C(N)N)NC(=O)[C@H](CCC(N)=O)NC(=O)[C@H](C)NC1=O)C(=O)N[C@@H](CCCCN)C(=O)N[C@@H](CC(N)=O)C(=O)NCC(=O)N[C@@H](CC(=O)O)C(=O)N3)C(=O)N[C@@H](C)C(=O)N[C@@H](C(C)C)C(=O)N[C@@H](CCCN=C(N)N)C(=O)N2 [FSCDVLSFQSKWVSPNHSACAVRCLAQRRKGGKCKNGDCVCR]
MIC [27]: 1.5 µM (≈ 6.96 µg/mL)
MIC [28]: 4.54 µM (≈ 21.1 µg/mL)

SMILES: CC[C@H](C)[C@H](NC(=O)[C@H](CCCCN)NC(=O)CNC(=O)[C@H](CC(C)C)NC(=O)[C@H](Cc1ccccc1)NC(=O)[C@H](CCCCN)NC(=O)[C@H](CO)NC(=O)[C@H](Cc1ccccc1)NC(=O)[C@H](Cc1c[nH]c2ccccc12)NC(=O)[C@H](CCC(N)=O)NC(=O)[C@@H](NC(=O)[C@@H](N)Cc1ccccc1)C(C)C)C(=O)N[C@@H](CC(C)C)C(N)=O [FVQWFSKFLGKIL]
MIC [2]: 12 µM (≈ 19.3 µg/mL)
MIC [4]: 6 µM (≈ 9.67 µg/mL)
MIC [29]: 6 µM (≈ 9.67 µg/mL)
MIC [30]: 24 µM (≈ 38.7 µg/mL)
MIC [31]: 12 µM (≈ 19.3 µg/mL)
MIC [32]: 24 µM (≈ 38.7 µg/mL)
MIC (Staphylococcus capitis 1): 6 µM (≈ 9.67 µg/mL)
MIC (Acinetobacter junii RT-4): 6 µM (≈ 9.67 µg/mL)
MIC [33]: 6 µM (≈ 9.67 µg/mL)
MIC [13]: 6 µM (≈ 9.67 µg/mL)
MIC [14]: 12 µM (≈ 19.3 µg/mL)
MIC (Escherichia coli D21): 24 µM (≈ 38.7 µg/mL)
MIC (Bacillus megaterium Bm11): 3 µM (≈ 4.84 µg/mL)
MIC [34]: 6 µM (≈ 9.67 µg/mL)
MIC [18]: 48 µM (≈ 77.4 µg/mL)
MIC [35]: 6 µM (≈ 9.67 µg/mL)
MIC (Saccharomyces cerevisiae): 6 µM (≈ 9.67 µg/mL)
MIC [36]: 12 µM (≈ 19.3 µg/mL)

Other lines, results leading:

MIC [2]: 16 µM (≈ 31.5 µg/mL)
MIC [37]: 8 µM (≈ 15.8 µg/mL)
SMILES: CC(C)C[C@H](NC(=O)[C@H](CC(C)C)NC(=O)[C@@H](NC(=O)[C@@H]1CCCN1C(=O)[C@H](CCCCN)NC(=O)[C@@H](N)[C@@H](C)O)[C@@H](C)O)C(=O)NCC(=O)N[C@@H](CC(C)C)C(=O)N1CCC[C@H]1C(=O)N[C@@H](CC(C)C)C(=O)NCC(=O)N[C@@H](C)C(=O)NCC(=O)N1CCC[C@H]1C(=O)N[C@@H](C)C(=O)N[C@@H](C)C(=O)NCC(=O)N1CCC[C@H]1C(=O)NCC(=O)N[C@@H](CCCCN)C(=O)N[C@@H](CCCN=C(N)N)C(N)=O [TKPTLLGLPLGAGPAAGPGKR]

MIC [38]: ≥ 64 µM
MIC [39]: ≥ 64 µM
SMILES: CC[C@H](C)[C@H](NC(=O)[C@H](C)NC(=O)[C@H](CCCCN)NC(=O)[C@@H](NC(=O)[C@@H](NC(=O)[C@H](CCCCN)NC(=O)[C@@H](NC(=O)[C@@H](NC(=O)[C@@H](NC(=O)CNC(=O)[C@@H](N)C(C)C)[C@@H](C)O)[C@@H](C)CC)[C@@H](C)CC)[C@@H](C)CC)[C@@H](C)CC)C(=O)N[C@H](C(=O)N[C@@H](CC(=O)O)C(=O)N[C@H](C(=O)N[C@@H](Cc1ccccc1)C(=O)N[C@@H](C)C(=O)N[C@@H](CCCCN)C(=O)O)[C@@H](C)CC)[C@@H](C)CC [VGTIIKIIKAIIDIFAK]
